Key:
in vitro = conditions: human
Procedure: (§1) The design and construction of the BBB-on-a-chip were as reported previously. The chip (Emulate, #OCK-12) was composed of two parallel microchannels (top; 1 × 1 mm, bottom; 1 × 0.2 mm) separated by a porous polydimethysiloxane (PDMS) membrane (diameter, 7 μm; spacing, 40 μm; thickness, 50 μm, resulting in 2% porosity over a surface area of 0.171 cm^2 separating the two channels). The membrane was activated according to the manufacturer’s instructions and coated with the mixture of laminin (1 mg/mL), collagen IV (1 mg/mL), and fibronectin (1 mg/mL) in DPBS (Figure 1). Coated chips were incubated at 4 °C overnight, then at 37 °C for 1 h before seeding the cells. hBMEC cells (9 × 10^5 cells/mL) were 20 µL seeded into the bottom channel of the chip. The chip was immediately inverted and incubated at 37 °C for 4 h. After 4 h, hBMECs were prepared as previously described and re-injected into the bottom channel to mimic the vascular structure, as shown in right panel of Figure 2A.
(§2) Ten drugs (Table 1) were selected for BBB permeability analysis (CAF, CBZ, DES, LPM, CET, VIN, LP, NZD, DPZ, and SIM). […] We performed transport experiments for the basolateral-to-apical side and the apical-to-basolateral side.
(§3) Fifteen microliters of blood-and-brain medium was mixed with 135 μL internal standard (IS) solution (5 ng/mL disopyramide in acetonitrile). The mixture was vortexed briefly and centrifuged at 15,000 rpm for 5 min at 4 °C. […] Mobile phase A was 0.1% formic acid in water and mobile phase B was 0.1% formic acid in acetonitrile. Chromatographic separation was performed on a Luna C18 column (100 × 2 mm (i.d.) 3 μm, Phenomenex) with a Security Guard C18 guard column (4 mm × 20 mm (i.d.), Phenomenex) by gradient elution at a flow rate of 0.3 mL/min (Table 2). The mass spectrometer was operated in positive ion mode for all compounds, and the carryover was checked by the injection of a blank in between samples.
(§4) (1) Ctn,channel=Atn−1, channel+C(tn−tn−1),channel·tn−tn−1·channel flow rate/tn·channel flow rate, where Achannel is the drug amount of the channel; tn is time point; C(tn−tn−1),channel is the concentration of drug pooled from tn to tn−1; channel flow rate, fluid flow rate in channel;
(§5) (2) Cchannel=Css, channel · t/CT50, channel+t, where CT50, channel is the time at a half steady state concentration of channel; t, time.
(§6) Kp , the partition coefficient, in the BBB-on-a-chip was calculated by dividing the calculated Css, brain by the Css, blood value of the drug passing through the bottom channel, as shown in Equation (3). (3) Kp=Css, brain/Css, blood
(§7) J represents the rate at which the amount of compound moves from the bottom channel to the top channel, which was calculated by determining the slope of the time-versus-amount curve at 0 h to the point at which a steady state (90% of Tss ) was reached. Papp can be calculated by dividing J by the surface area of the membrane (SA) separating the two channels and the initial concentration in the bottom channel. (4) Papp=J/MW/SA·C0,blood ,J=dAbrain/dt, where MW is molecular weight of each drug.

[1] = system: human BBB-on-a-chip (hBMEC, HBVP, NHA); test: in vitro
Procedure: as §1, §2, §3, §4, §5, §6, §7

[2] = system: human BBB-on-a-chip (hBMEC, HBVP, NHA); test: BBB-on-a-chip permeability, basolateral to apical (brain to blood channel), LC-MS/MS; format: in vitro ADME; conditions: 1 μM in top channel
Description: Css, channel , the concentration in the channel at the steady state, was estimated using a simple Emax model Equation (2) with time (h) on the x-axis and concentration (ng/mL) on the y-axis.

[3] = 1 μM dosed, simple Emax model fit
[4] = 1 μM dosed, simple Emax model fit, sampling 1, 4, 9, 24 h
[5] = time to reach predicted 90% Css

Structure (SMILES) | Kp (in vitro) | Cplateau,brain (concentration at plateau time of brain channel) ([1]; human) | Css,blood (steady state concentration of blood channel) ([1]; human) | Css,brain (steady state concentration of brain channel) ([1]; human) | Papp at 24 h, 1 μM (in vitro) | CT50,brain (time at half steady state concentration of brain channel) [1, 3] | CT50,blood (time at half steady state concentration of blood channel) [1, 4] | tplateau,brain (plateau time for brain channel) [1, 5] | other results
Cn1c(=O)c2c(ncn2C)n(C)c1=O [Caffeine, caffeine] | 0.435 | 44.8098 ng/mL | 0.11447 µg/mL | 0.04979 µg/mL |  |  |  |  | Papp (in vitro): 300 nm/s; Plateau reached in brain channel during the observed time [1]: reached plateau; CT50,blood (time at half steady state concentration of blood channel) ([1]; human): 2.91 h; CT50,brain (time at half steady state concentration of brain channel) ([1]; human): 2.39 h; tplateau,brain (plateau time for brain channel) ([1]; human): 21.52 h
NC(=O)N1c2ccccc2C=Cc2ccccc21 [Carbamazepine, carbamazepine] |  | 28.6749 ng/mL | 0.11288 µg/mL | 0.03186 µg/mL | 158 nm/s | 3.27 h | 1.98 h | 29.41 h | Kp at 1 μM (in vitro): 0.282; BBB permeability in words (apical to basolateral) ([1]; BBB-on-a-chip, 1 μM): high permeabilities
CNCCCN1c2ccccc2CCc2ccccc21 [Desipramine, desipramine] |  |  |  |  | 325 nm/s | 34.47 h | 57.44 h | 310.22 h | Css,blood (steady state concentration of blood channel) [1, 3]: 0.23483 µg/mL; Css,brain (steady state concentration of brain channel) [1, 3]: 0.07393 µg/mL; Cplateau,brain (concentration at plateau time of brain channel) ([1]; predicted 90% Css): 66.5383 ng/mL
Nc1nc(OC(c2ccc(-c3cccc(F)c3)cc2)C(F)(F)F)cc(-c2ccc(C[C@H](N)C(=O)O)cc2)n1 (some centres unmarked) [LP533401] |  |  |  |  |  | 0.16 h | 6.80 h | 1.42 h | BBB permeability in words (apical to basolateral) [1]: low permeability; Papp (apparent permeability) [1]: 2.1693 10^−6cm/s; Css,blood (steady state concentration of blood channel) [1, 3]: 0.57366 µg/mL; Css,brain (steady state concentration of brain channel) [1, 3]: 0.00977 µg/mL; Kp (Brain/Blood), partition coefficient ([1]; human): 0.0170; Plateau reached in brain channel during the observed time ([1]; observation up to 24 h): reached plateau; Cplateau,brain (concentration at plateau time of brain channel) ([1]; predicted 90% Css): 8.7886 ng/mL
CN(C)C(=O)C(CCN1CCC(O)(c2ccc(Cl)cc2)CC1)(c1ccccc1)c1ccccc1 [Loperamide, loperamide] | 0.0552 | 33.9736 ng/mL | 0.68409 µg/mL | 0.03775 µg/mL |  | 20.04 h | 58.46 h |  | Papp (in vitro): 92.6 nm/s; tplateau,brain (plateau time for brain channel) ([1]; human): 180.32 h; BBB permeability in words (basolateral to apical) [2]: high permeability
CCc1nn(CCCN2CCN(c3cccc(Cl)c3)CC2)c(=O)n1CCOc1ccccc1 [Nefazodone, nefazodone] |  | 13.8908 ng/mL | 0.16189 µg/mL | 0.01543 µg/mL | 38.4 nm/s | 37.79 h | 9.01 h | 340.10 h | Kp at 1 μM (in vitro): 0.0953
CC[C@]1(O)C[C@H]2CN(CCc3c([nH]c4ccccc34)[C@@](C(=O)OC)(c3cc4c(cc3OC)N(C=O)[C@H]3[C@@](O)(C(=O)OC)[C@H](OC(C)=O)[C@]5(CC)C=CCN6CC[C@]43[C@@H]65)C2)C1 [Vincristine, vincristine] | 0.0821 |  | 0.6262 µg/mL |  |  |  | 2.99 h |  | Plateau reached in brain channel during the observed time ([1]; observation up to 24 h): reached plateau

From paper PMC11125197, “Evaluation of Drug Blood-Brain-Barrier Permeability Using a Microfluidic Chip” (Pharmaceutics, 2024)
